Ends that are not written are not given here.
Columns and labels:
[1] = tested on: C. albicans (clinical isolate); assay: Melanocortin peptides on C. albicans viability (colony forming units); format: cell-based; conditions: for C. albicans colony forming units (CFU): two hours at 37° C.; for reduction of C. albicans CFU at higher concentrations: up to 10^−4M
Experimental: S. aureus (ATCC 29213) and C. albicans (clinical isolate) were obtained from the collection of the Department of Microbiology, Ospedale Maggiore di Milano. C. albicans were maintained on Sabouraud'[…] periodically transferred to Sabouraud's agar plates and incubated for 48 hours at 28° C. To prepare stationary growth phase yeast, a colony was taken from the agar plate and transferred into 30 ml Sabouraud-dextrose broth and incubated for 72 hours at 32° C. Cells were centrifuged at 100×g for 10 minutes and the pellet was washed twice with distilled water. Cells were counted and suspended in Hank's balanced salt solution (“HBSS”) to the desired concentration. Viability, determined by the exclusion of 0.01% methylene blue, remained >98%. […] Cells were then washed in cold distilled water and diluted with HBSS to a concentration of 100 organisms/ml. One ml aliquots were dispensed on blood agar plates and incubated for 48 hours at 37° C. Organism viability was estimated from the number of colonies formed. In subsequent experiments using similar procedures we compared activity of α-MSH (4-10), (6-13), (11-13), ACTH (1-39), (18-39), and fluconazole, the latter an established […]. […] There were at least six replicates for each concentration of peptide. […] The reaction was stopped after three minutes by the addition of ice cold ethanol. cAMP was measured in duplicate using a commercial enzyme immunoassay (EIA) kit (Amersham, United Kingdom) after extraction via the liquid-phase method according to manufacturer's instructions.

[2] = tested on: chronically HIV-1 infected promonocytic U1 cell line; assay: p24 antigen release by stimulated U1 cells (ELISA); format: cell-based; conditions: for most effective concentration for HIV inhibition (p24 release): tested 10^−13 to 10^−4 M
Experimental: (§1) Before use, cells were washed three times with HBSS (Gibco) to remove extracellular virus. […] In crowding experiments, U1 cells were seeded at the density of 2×10^5 mL and maintained in culture at 37° C. in 5% CO2 without change of medium for 7 days. […] In all experiments each condition was tested in triplicate.
(§2) p24 antigen release (Cellular Products Inc. Buffalo, N.Y., USA) and reverse transcriptase (ELISA Retrosys RT assay, Innovagen, Lund, Sweden) were determined using commercial ELISA kits.

S. aureus (ATCC 29213) = assay: Melanocortin peptides on S. aureus viability (colony formation); format: cell-based; conditions: two hours at 37° C.
Experimental: S. aureus (ATCC 29213) and C. albicans (clinical isolate) were obtained from the collection of the Department of Microbiology, Ospedale Maggiore di Milano. C. albicans were maintained on Sabouraud'[…] periodically transferred to Sabouraud's agar plates and incubated for 48 hours at 28° C. To prepare stationary growth phase yeast, a colony was taken from the agar plate and transferred into 30 ml Sabouraud-dextrose broth and incubated for 72 hours at 32° C. Cells were centrifuged at 100×g for 10 minutes and the pellet was washed twice with distilled water. Cells were counted and suspended in Hank's balanced salt solution (“HBSS”) to the desired concentration. Viability, determined by the exclusion of 0.01% methylene blue, remained >98%. […] Cells were then washed in cold distilled water and diluted with HBSS to a concentration of 100 organisms/ml. One ml aliquots were dispensed on blood agar plates and incubated for 24 hours at 37° C. Organism viability was estimated from the number of colonies formed.

S. aureus = assay: Urokinase-induced growth enhancement of S. aureus; format: cell-based; conditions: peptide 10^−6M; urokinase 500 U; four hours
Text: In experiments on S. aureus, we determined the influence of α-MSH on urokinase-induced growth-enhancement. Hart, D. A.; Loule, T.; Krulikl, W.; Reno, C., Staphylococcus Aureus Strains Differ in Their in Vitro Responsiveness to Human Urokinase: Evidence that Methicillin-Resistant Strains are Predominantly Nonresponsive to the Growth-Enhancing Effects of Urokinase, Can. J. Microbiol. 42, 1024-31 […]. […] Appropriate dilutions of S. aureus were dispensed on agar plates and colonies counted after 24 hours incubation at 37° C.

[3] = tested on: C. albicans killing by human neutrophils; assay: C. albicans killing by human neutrophils; format: cell-based; conditions: two hours at 37° C.
Experimental: Venous blood (20 ml) from healthy volunteers was anticoagulated with heparin. Neutrophils were isolated using dextran sedimentation and Ficoll-Hypaque (Sigma Chemical Co., St. Louis, Mo., USA) centrifugation. Erythrocytes were lysed via hypotonic shock. Neutrophils represented at least 97% of the cell suspension. Cell viability, estimated by trypan blue exclusion, was >98%. Neutrophils were suspended to final concentration in HBSS. […] After incubation, the culture tubes were placed on ice to stop growth and extracellular organisms were washed twice with centrifugation at 100×g at 4° C. A 2.5% sodium desoxycholate solution was added to the suspension and the tubes were shaken for five minutes. Cold distilled water was added to obtain a suspension of 10^6 cells/ml. Two 1/100 serial dilution in HBSS were made to obtain a final suspension of 100 cells/ml. Aliquots of 1 ml were dispensed on blood agar plates and incubated for 48 hours at 37° C. Colony forming units (“CFU”) were counted at the end of the incubation period. Experiments were run in triplicate and repeated using blood from five different donors.

C. albicans [4] = assay: cAMP accumulation in C. albicans (EIA); format: cell-based; conditions: 10^−6M; three minutes
Experimental: The reaction was stopped after three minutes by the addition of ice cold ethanol. cAMP was measured in duplicate using a commercial enzyme immunoassay (EIA) kit (Amersham, United Kingdom) after extraction via the liquid-phase method according to manufacturer's instructions.

[5] = tested on: chronically HIV-1 infected promonocytic U1 cell line; assay: reverse transcriptase (RT) release by stimulated U1 cells (ELISA); format: cell-based; conditions: U1 cells induced by IL-6, IL-10, PMA, and in crowding condition; KPV 10^−5 M
Experimental: as §1, §2

[6] = tested on: HIV-1 RNA in PMA-stimulated U1 cells; assay: Northern blot for HIV-1 RNA in U1 cells; format: cell-based; conditions: PMA (1 ng/mL)-stimulated U1 cells; KPV 10^−5 M; 24 h
Text: Total RNA was extracted by the guanidine thiocyapate phenol method using an RNA isolation kit (Tripure, Boehringer Mannheim, Indianapolis, Ind.), following the manufacturer's instructions. Ten μg of total RNA were separated by 0.8% agarose/formaldehyde gel electrophoresis and transferred onto nylon membrane. The filters were baked and hybridized for 18 hr with α^32 P-labeled HIV-full length probe (kind gift of L. Turchetto and E. Vicenzi, S. Raffaele Hospital, Milan, Italy). The radiolabelling reaction was performed using a DNA labelling kit (Ready-to-go, Pharmacia Biotech, San Francisco, Calif.). Filters were washed and exposed to X-ray film for 5 days. The labeled probe was removed by washing at 80° C. in 0.1×SSC containing 0.1% sodium dodecyl sulphate and then rehybridized witb α^32 P-labeled glyceraldehyde-3-phosphate dehydrogenase (GAPDH) cDNA probe. Densitometric analysis was performed using ImageMaster™ VDS 3.0 software (Pharmacia Biotech) and results were expressed as density units.

[7] = tested on: HIV-1Ba-L strain in human MDM; assay: RT release in acutely infected monocyte derived macrophages (MDM); format: cell-based; conditions: KPV 10^−5 M daily, more pronounced on day 6, still significant on day 21
Experimental: as §2
Human peripheral blood mononuclear cells (PBMCs) were isolated from normal donors by Ficoll-Hypaque density gradient centrifugation. Monocytes were isolated by Percoll gradient separation and allowed to differentiate into macrophages (MDM) in complete medium RPMI plus 20% FCS in 24-well tissue culture plates at 10^6 cells/mL for 7-days. MDM were infected with monocytotropic HIV-1Ba-L strain (1:10) overnight. The undiluted viral stock contained 10^7 infectious Units/mL. After 24 h, MDM were washed and resuspended in complete medium, replaced 3 times/week, for 3 weeks. RT activity was measured weekly post-infection.

NF-κB = assay: Electrophoretic mobility shift assay of NF-κB DNA-binding activity in U1 cells; format: cell-based; conditions: 10^−5 M peptide
Text: The mixtures were run on a 5% (30:1) acrylamide gel in 1× Tris-Borate-EDTA (TBE). Gels were dried and exposed to film for autoradiography (3 days).

C. albicans [8] = assay: α-MSH peptides on C. albicans germination (horse serum-induced); format: cell-based; conditions: horse serum-induced germ tube formation; peptide 10^−4M; 60 minutes
Experimental: C. albicans from stationary phase cultures were washed twice with distilled water and suspended in HBSS to a final concentration of 2×10^6/ml. Hyphal growth was induced by addition of 10% inactivated horse serum (GMCO/BRL, Paisley, Great Britain) to yeast incubated for 45 minutes at 37° C. with continuous shaking. […] The percentage of filamentous cells was evaluated under a light microscope with the aid of a hartocytometer. Experiments were run in triplicate and at least 200 cells were scored. Photomicrographs were taken with a MC100 […] attached to an Axioskop Zeiss microscope.

[9] = in vivo; cited from earlier work
[10] = centrally administered, rabbit; cited from earlier work
[11] = 10^−4M melanocortin peptides (FIG. 11 legend: 10^−6M)

MEHFRWG [α-MSH sequence (4-10)]
inhibition of C. albicans CFU [1, 11]: approximately 50%

SYSMEHFRWGKPV (listed as Homo sapiens) [α-MSH (1-13)]
inhibition of p24 release ([2]; TNF-α-stimulated U1 cells, picomolar peptide concentrations that occur in human plasma): 34-36%
most effective concentration for HIV inhibition (p24 release) ([2]; TNF-α-stimulated U1 cells): 10^−5 M
S. aureus colony formation (S. aureus (ATCC 29213)): inhibited
enhancing effect of urokinase on S. aureus colony formation (S. aureus): significantly inhibited
C. albicans colony forming units (CFU) [1]: greatly reduced
killing of C. albicans by human neutrophils [3]: enhanced killing
cAMP content of C. albicans (C. albicans [4]): enhanced cAMP content

ACTH fragment (18-39): ACTH fragment (18-39) (CLIP) [reference compound]
relative potency in reducing C. albicans viability [1, 11]: did not reduce C. albicans viability
reduction of C. albicans CFU at higher concentrations [1]: likewise ineffective

KPV
most effective concentration for HIV inhibition (p24 release) ([2]; TNF-α-stimulated U1 cells): 10^−5 M
p24 release ([2]; U1 cells induced by IL-6, IL-10, PMA, and in crowding condition, KPV 10^−5 M): significantly inhibited
RT release [5]: significantly inhibited
reduction of both spliced and unspliced HIV-1 RNA [6]: approximately 50%
RT release [7]: significantly inhibited
NF-κB activation (DNA binding) (NF-κB; TNF-α-treated U1 cells): significantly reduced
NF-κB activation (DNA binding) (NF-κB; resting U1 cells): did not alter
S. aureus colony formation (S. aureus (ATCC 29213)): inhibited
enhancing effect of urokinase on S. aureus colony formation (S. aureus): significantly inhibited
C. albicans colony forming units (CFU) [1]: greatly reduced
reduction in the number of filamentous cells (inhibition of germination) (C. albicans [8]): 54-58%
killing of C. albicans by human neutrophils [3]: enhanced killing
cAMP content of C. albicans (C. albicans [4]): enhanced cAMP content

[Nle^4, D-Phe^7], α-MSH
potency in reducing fever relative to parent peptide [9]: approximately ten times more potent than the parent peptide

HFRWGKPV [α-MSH (6-13)]
relative potency in reducing C. albicans viability [1, 11]: most effective

NH2-Val-Pro-Lys-Ac-Cys-Cys-Ac-Lys-Pro-Val-NH2 (Ac-CKPV-NH2; also: dimer linked through Cys-Cys) [KPV dimer]
S. aureus colony formation (S. aureus (ATCC 29213)): inhibited
effectiveness against microbes compared with α-MSH (11-13) ([1]; S. aureus and C. albicans): at least as effective as α-MSH (11-13)
C. albicans colony forming units (CFU) [1]: inhibited

ACTH (1-39): melanocortin peptide ACTH (1-39) (SYSMEHFRWGKPVGKKRRPVKVYPNGAEDESAEAFPLEF; Corticotropin; UniProt P01189 138-176, looked up) [reference compound]
relative potency in reducing C. albicans viability [1, 11]: did not reduce C. albicans viability
reduction of C. albicans CFU at higher concentrations [1]: likewise ineffective

10-13 sequence: α-MSH (11-13) with glycine added to form the 10-13 sequence (GKPV; ends and bridges not checked; UniProt P01189 147-150, looked up, fragment)
antipyretic potency relative to the 11-13 sequence [10]: slightly decreased potency

From patent US6803044B1, “Antimicrobial and anti-inflammatory peptides for use in human immunodeficiency virus” (priority 1999, dated 2004)
